Holding throughout (conditions): in vivo
Data set [1] can be described thus: Toxicity in CD-1 mouse at 5 mg/kg, po administered as single dose via gavage. Format: organism-based.
Data set [2] can be described thus: Toxicity in CD-1 mouse assessed as ataxia at 5 mg/kg, po administered as single dose via gavage measured after 5 hrs. Format: organism-based.
The nature of data set [3]: Toxicity in CD-1 mouse at 160 mg/kg, po administered as single dose via gavage. Format: organism-based.
Data set [4] can be described thus: Ratio of fCmax in CD-1 mouse at 10 mg/kg, po to IC50 for PARG in human HeLa cells. It counts as ADME, organism-based.
Data set [5] in a line: Hepatotoxicity in CD-1 mouse assessed as appearance of pale yellow color organ at 10 mg/kg, po administered as single dose via gavage measured after 24 hrs. Format: toxicity, organism-based.
Data set [6] in a line: Hepatotoxicity in CD-1 mouse assessed as appearance of mottled organ at 10 mg/kg, po administered as single dose via gavage measured after 24 hrs. Format: toxicity, organism-based.
Data set [7] is described as follows: Toxicity in CD-1 mouse assessed as gastrointestinal bleeding at 10 mg/kg, po administered as single dose via gavage measured after 24 hrs. It counts as organism-based.

For the compound `Cn1cc(Cn2c(=O)c3cc(S(=O)(=O)NC4(CF)CC4)ccc3n(Cc3ccn(C)n3)c2=O)cn1`, in data set [1], the Activity entry is given as “Non-Toxic”.
Regarding `Cn1cc(Cn2c(=O)c3cc(S(=O)(=O)NC4(CF)CC4)ccc3n(C)c2=O)cn1`, the Activity entry in data set [2] is on record as “Toxic”.
As for `CCn1c(=O)n(Cc2cnn(C)c2)c(=O)c2cc(S(=O)(=O)NC3(C)CC3)ccc21`, the figures for the Activity result in data set [1] and in data set [2] were “Non-Toxic” and “Toxic”, respectively.
As for `Cn1cc(Cn2c(=O)c3cc(S(=O)(=O)NC4(C)CC4)ccc3n(Cc3ccn(C)n3)c2=O)cn1`, the Activity entry in data set [1] and in data set [3] was “Non-Toxic” in each case.
With `CCn1c(=O)n(Cc2cnn(C)c2)c(=O)c2cc(S(=O)(=O)NC3(CF)CC3)ccc21`, the Ratio result in data set [4] is on record as “Nd(Toxic)”. In addition, the Activity result is “Non-Toxic” in data set [1]; “Toxic” in data set [5]; “Toxic” in data set [6]; “Toxic” in data set [7]; “Toxic” in data set [2].
On to `Cn1cc(Cn2c(=O)c3cc(S(=O)(=O)NC4(C)CC4)ccc3n(C)c2=O)cn1`, for which the Activity entry is on record as “Non-Toxic” in data set [1] and “Toxic” in data set [2].
Regarding `CCn1c(=O)n(Cc2cc(C)on2)c(=O)c2cc(S(=O)(=O)NC3(CF)CC3)ccc21`, in data set [2], the Activity result was “Toxic”.
